Like-named read-outs stand apart in the source and are kept apart here.
What was measured:
[1] = biological target: T1, human recombinant A3AR (expressed in HEK-293 cells) (Homo sapiens, UniProt P0DMS8); assay: Adenosine receptors antagonism assay (Eurofins), [125I]-AB-MECA radioligand competition; type: binding
T1 construct: host or cells: HEK-293 cells
T1 sequence (P0DMS8 1-318): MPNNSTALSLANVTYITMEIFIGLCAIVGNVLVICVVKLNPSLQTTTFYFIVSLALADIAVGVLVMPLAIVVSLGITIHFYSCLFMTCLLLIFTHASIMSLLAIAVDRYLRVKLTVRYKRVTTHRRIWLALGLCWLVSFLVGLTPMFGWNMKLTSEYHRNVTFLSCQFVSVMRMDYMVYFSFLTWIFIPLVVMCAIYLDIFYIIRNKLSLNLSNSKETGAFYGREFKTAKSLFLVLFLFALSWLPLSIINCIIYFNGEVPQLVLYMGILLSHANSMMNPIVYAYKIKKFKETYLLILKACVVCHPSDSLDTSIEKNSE
Procedure: Assays were carried out at r.t. for 120 min. Compounds were initially tested at three concentrations (0.01, 0.1, 1 µM). […] IC50 values, which is the concentration causing a half-maximal inhibition of control specific binding, and Hill coefficients (nH) were determined by non-linear regression analysis of the competition curves generated with mean replicate values using Hill equation curve fitting. The inhibition constants (Ki) were calculated using the Cheng Prusoff equation.

LogD (HPLC) = type: physicochemical; conditions: by HPLC; Table 2
[2] = [125I]-AB-MECA 0.15 nM, r.t., 120 min; IC50 from dose-response curves; read-out: Potency Class A3AR
[3] = read-out: Potency Class A3AR; [125I]-AB-MECA 0.15 nM, r.t., 120 min; IC50 from dose-response curves

Row | IC50 [1, 2] [nM] | chromatographic logD (LogD (HPLC)) | Structure (SMILES) | IC50 [1, 3] [nM]
1 | 10 to 100 | 4.1 | CC(C)c1nnc2c(NCc3ccccc3)cc(NC3CCc4ccccc43)nn12 (racemic) [compound 146, N8-benzyl-N6-indan-1-yl-3-isopropyl-[1,2,4]triazolo[4,3-b]pyridazine-6,8-diamine] | 
2 | 10 to 100 | 3.47 | CC(C)c1nnc2c(NCc3ccccc3)cc(NC3CCC3)nn12 [compound 117, N8-benzyl-N6-cyclobutyl-3-isopropyl-[1,2,4]triazolo[4,3-b]pyridazine-6,8-diamine] | 
3 | 1 to 10 | 3.84 | CC(C)c1nnc2c(NCc3ccccc3)cc(NC3CCCC3)nn12 [compound 118, N8-benzyl-N6-cyclopentyl-3-isopropyl-[1,2,4]triazolo[4,3-b]pyridazine-6,8-diamine] | 
4 | 10 to 100 | 3.33 | CC(C)c1nnc2c(NCc3ccccc3)cc(NCC3CC3)nn12 [compound 122, N8-benzyl-N6-(cyclopropylmethyl)-3-isopropyl-[1,2,4]triazolo[4,3-b]pyridazine-6,8-diamine] | 
5 | 10 to 100 | 4.6 | CC(C)c1nnc2c(NCc3ccccc3)cc(NCC3CCCCC3)nn12 [compound 124, N8-benzyl-N6-(cyclohexylmethyl)-3-isopropyl-[1,2,4]triazolo[4,3-b]pyridazine-6,8-diamine] | 
6 | 1 to 10 | 4.42 | CCC(CC)CNc1cc(NCc2ccccc2)c2nnc(C(C)C)n2n1 [compound 126, N8-benzyl-N6-(2-ethylbutyl)-3-isopropyl-[1,2,4]triazolo[4,3-b]pyridazine-6,8-diamine] | 
7 | 100 to 1000 | 5.02 | CC(C)c1nnc2c(NCc3ccccc3)cc(NC34CC5CC(CC(C5)C3)C4)nn12 [compound 137, N6-(1-adamantyl)-N8-benzyl-3-isopropyl-[1,2,4]triazolo[4,3-b]pyridazine-6,8-diamine] | 
8 | 10 to 100 | 3.07 | CSCCNc1cc(NCc2ccccc2)c2nnc(C(C)C)n2n1 [compound 143, N8-benzyl-3-isopropyl-N6-(2-methylsulfanylethyl)-[1,2,4]triazolo[4,3-b]pyridazine-6,8-diamine] | 
9 | 100 to 1000 | 2.52 | Cc1cc(C)nc(CNc2cc(NCc3ccccc3)c3nnc(C(C)C)n3n2)n1 [compound 145, N8-benzyl-N6-[(4,6-dimethylpyrimidin-2-yl)methyl]-3-isopropyl-[1,2,4]triazolo[4,3-b]pyridazine-6,8-diamine] | 

Further lines, the compound ahead of its results:

Row | Structure (SMILES) | IC50 [1, 2] [nM] | chromatographic logD (LogD (HPLC)) | IC50 [1, 3] [nM]
10 | CC(C)c1nnc2c(NCc3ccccc3)cc(NC3CCCCC3)nn12 [compound 119, N8-benzyl-N6-cyclohexyl-3-isopropyl-[1,2,4]triazolo[4,3-b]pyridazine-6,8-diamine] | 10 to 100 | 4.17 | 
11 | CC(C)c1nnc2c(NCc3ccccc3)cc(NC3CCCCCC3)nn12 [compound 121, N8-benzyl-N6-cycloheptyl-3-isopropyl-[1,2,4]triazolo[4,3-b]pyridazine-6,8-diamine] | 10 to 100 | 4.57 | 
12 | CC(C)c1nnc2c(NCc3ccccc3)cc(NCC3CCC3)nn12 [compound 123] |  | 3.86 | 10 to 100
13 | CC(C)c1nnc2c(NCc3ccccc3)cc(NCC3CCOCC3)nn12 [compound 125, N8-benzyl-3-isopropyl-N6-(tetrahydropyran-4-ylmethyl)-[1,2,4]triazolo[4,3-b]pyridazine-6,8-diamine] | 100 to 1000 | 2.74 | 
14 | CC(C)c1nnc2c(NCc3ccccc3)cc(NCCc3ccccc3)nn12 [compound 127, N8-benzyl-3-isopropyl-N6-(2-phenylethyl)-[1,2,4]triazolo[4,3-b]pyridazine-6,8-diamine] | 10 to 100 | 3.78 | 
15 | CC(C)c1nnc2c(NCc3ccccc3)cc(NCCOc3ccccc3)nn12 [compound 128, N8-benzyl-3-isopropyl-N6-(2-phenoxyethyl)-[1,2,4]triazolo[4,3-b]pyridazine-6,8-diamine] | 100 to 1000 | 3.68 | 
16 | CC(C)c1nnc2c(NCc3ccccc3)cc(NCc3nccn3C)nn12 [compound 129, N8-benzyl-3-isopropyl-N6-[(1-methylimidazol-2-yl)methyl]-[1,2,4]triazolo[4,3-b]pyridazine-6,8-diamine] | 100 to 1000 | 1.95 | 
17 | CC(C)c1nnc2c(NCc3ccccc3)cc(NCc3ccccc3)nn12 [compound 130, N6,N8-dibenzyl-3-isopropyl-[1,2,4]triazolo[4,3-b]pyridazine-6,8-diamine] | 1 to 10 | 3.5 | 
18 | CC(C)c1nnc2c(NCc3ccccc3)cc(NCc3ccccn3)nn12 [compound 131, N8-benzyl-3-isopropyl-N6-(2-pyridylmethyl)-[1,2,4]triazolo[4,3-b]pyridazine-6,8-diamine] | 10 to 100 | 2.51 | 
19 | CC(C)c1nnc2c(NCc3ccccc3)cc(NCc3cccnc3)nn12 [compound 132, N8-benzyl-3-isopropyl-N6-(3-pyridylmethyl)-[1,2,4]triazolo[4,3-b]pyridazine-6,8-diamine] | 10 to 100 | 2.36 | 
20 | CC(C)c1nnc2c(NCc3ccccc3)cc(NCc3ccncc3)nn12 [compound 133, N8-benzyl-3-isopropyl-N6-(4-pyridylmethyl)-[1,2,4]triazolo[4,3-b]pyridazine-6,8-diamine] | 100 to 1000 | 2.36 | 
21 | CC(C)c1nnc2c(NCc3ccccc3)cc(NCC3(C)CCCCC3)nn12 [compound 136] |  | 4.88 | 10 to 100
22 | CC(C)c1nnc2c(NCc3ccccc3)cc(NC3Cc4ccccc4C3)nn12 [compound 138, N8-benzyl-N6-indan-2-yl-3-isopropyl-[1,2,4]triazolo[4,3-b]pyridazine-6,8-diamine] | 10 to 100 | 4.08 | 
23 | Cc1cnc(CNc2cc(NCc3ccccc3)c3nnc(C(C)C)n3n2)cn1 [compound 139, N8-benzyl-3-isopropyl-N6-[(5-methylpyrazin-2-yl)methyl]-[1,2,4]triazolo[4,3-b]pyridazine-6,8-diamine] | 100 to 1000 | 2.3 | 
24 | CC(C)c1nnc2c(NCc3ccccc3)cc(NCc3cnn(C)c3)nn12 [compound 140, N8-benzyl-3-isopropyl-N6-[(1-methylpyrazol-4-yl)methyl]-[1,2,4]triazolo[4,3-b]pyridazine-6,8-diamine] | 10 to 100 | 2.3 | 
25 | Cc1cc(C)cc(CNc2cc(NCc3ccccc3)c3nnc(C(C)C)n3n2)c1 [compound 141, N8-benzyl-N6-[(3,5-dimethylphenyl)methyl]-3-isopropyl-[1,2,4]triazolo[4,3-b]pyridazine-6,8-diamine] | 100 to 1000 | 4.2 | 
26 | CC(C)c1nnc2c(NCc3ccccc3)cc(Nc3nccn3C)nn12 [compound 144, N8-benzyl-3-isopropyl-N6-(1-methylimidazol-2-yl)-[1,2,4]triazolo[4,3-b]pyridazine-6,8-diamine] | 100 to 1000 | 2.27 | 
